Source: the NIST ThermoML archive (doi:10.1021/acs.jced.5b00802)
± gives the expanded uncertainty stated by the source.

Tests used:
[1] = 101.33 kPa, Liquid; for speed of sound: Sing-around technique in a fixed-path interferometer; for mass density: Vibrating tube method
[2] = refractive index (Na D-line) (dimensionless); details: 101.33 kPa, Liquid, Standard Abbe refractometry
[3] = xn = mol fraction of the nth substance listed; details: 298.15 K, 100 kPa, Liquid; for speed of sound: Frequency=3 MHz, Sing-around technique in a fixed-path interferometer; for mass density: Vibrating tube method
[4] = refractive index (Na D-line) (dimensionless); xn = mol fraction of the nth substance listed; details: 298.15 K, 100 kPa, Liquid, Standard Abbe refractometry

Structure (SMILES): CCCCN [1-butanamine]
- speed of sound ([1]; 293.15 K): 1268.3 ± 1.4 m/s
- mass density ([1]; 293.15 K): 737.048 ± 1.8 kg/m3
- speed of sound ([1]; 298.15 K): 1246 ± 1.4 m/s
- mass density ([1]; 298.15 K): 732.231 ± 1.8 kg/m3
- speed of sound ([1]; 303.15 K): 1224.6 ± 1.4 m/s
- mass density ([1]; 303.15 K): 727.452 ± 1.8 kg/m3
- refractive index ([2]; 293.15 K): 1.4006 ± 0.0042
- refractive index ([2]; 298.15 K): 1.39786 ± 0.0042
- refractive index ([2]; 303.15 K): 1.395 ± 0.0042

Structure (SMILES): CCCCCCN [1-hexanamine]
- speed of sound ([1]; 293.15 K): 1324 ± 1.1 m/s
- mass density ([1]; 293.15 K): 764.423 ± 1.8 kg/m3
- speed of sound ([1]; 298.15 K): 1303.6 ± 1.1 m/s
- mass density ([1]; 298.15 K): 760.073 ± 1.8 kg/m3
- speed of sound ([1]; 303.15 K): 1283.6 ± 1.1 m/s
- mass density ([1]; 303.15 K): 755.848 ± 1.8 kg/m3
- refractive index ([2]; 298.15 K): 1.41577 ± 0.0043

Structure (SMILES): CCCCCCN [1-hexanamine] + CN(C)C=O
- speed of sound ([3]; x2 = 0.0506): 1307.1 ± 1.1 m/s
- speed of sound ([3]; x2 = 0.0992): 1310.8 ± 1.1 m/s
- speed of sound ([3]; x2 = 0.1725): 1316.7 ± 1.1 m/s
- speed of sound ([3]; x2 = 0.2548): 1324.2 ± 1.2 m/s
- speed of sound ([3]; x2 = 0.3476): 1333.7 ± 1.2 m/s
- speed of sound ([3]; x2 = 0.4461): 1345.5 ± 1.2 m/s
- speed of sound ([3]; x2 = 0.55): 1360.1 ± 1.2 m/s
- speed of sound ([3]; x2 = 0.6022): 1368.3 ± 1.2 m/s
- speed of sound ([3]; x2 = 0.7056): 1387.1 ± 1.2 m/s
- speed of sound ([3]; x2 = 0.7996): 1406.8 ± 1.2 m/s
- speed of sound ([3]; x2 = 0.8492): 1418.4 ± 1.2 m/s
- speed of sound ([3]; x2 = 0.8982): 1430.4 ± 1.2 m/s
- speed of sound ([3]; x2 = 0.953): 1444.7 ± 1.2 m/s
- mass density ([3]; x2 = 0.0506): 765.582 ± 1.9 kg/m3
- mass density ([3]; x2 = 0.0992): 771.096 ± 1.9 kg/m3
- mass density ([3]; x2 = 0.1725): 779.897 ± 1.9 kg/m3
- mass density ([3]; x2 = 0.2548): 790.546 ± 1.9 kg/m3
- mass density ([3]; x2 = 0.3476): 803.611 ± 1.9 kg/m3
- mass density ([3]; x2 = 0.4461): 818.861 ± 2 kg/m3
- mass density ([3]; x2 = 0.55): 836.751 ± 2 kg/m3
- mass density ([3]; x2 = 0.6022): 846.551 ± 2.1 kg/m3
- mass density ([3]; x2 = 0.7056): 867.688 ± 2.1 kg/m3
- mass density ([3]; x2 = 0.7996): 889.217 ± 2.2 kg/m3
- mass density ([3]; x2 = 0.8492): 901.602 ± 2.2 kg/m3
- mass density ([3]; x2 = 0.8982): 914.549 ± 2.2 kg/m3
- mass density ([3]; x2 = 0.953): 929.99 ± 2.3 kg/m3
- refractive index ([4]; x2 = 0.0506): 1.41613 ± 0.0043
- refractive index ([4]; x2 = 0.1725): 1.41707 ± 0.0043
- refractive index ([4]; x2 = 0.2548): 1.41779 ± 0.0043
- refractive index ([4]; x2 = 0.3476): 1.4187 ± 0.0043
- refractive index ([4]; x2 = 0.4461): 1.4198 ± 0.0043
- refractive index ([4]; x2 = 0.55): 1.42107 ± 0.0043
- refractive index ([4]; x2 = 0.6558): 1.42257 ± 0.0043
- refractive index ([4]; x2 = 0.7573): 1.42411 ± 0.0043
- refractive index ([4]; x2 = 0.8492): 1.42564 ± 0.0043
- refractive index ([4]; x2 = 0.953): 1.42747 ± 0.0043

Structure (SMILES): CCCCNCCCC [dibutylamine]
- speed of sound ([1]; 293.15 K): 1261.1 ± 1.1 m/s
- mass density ([1]; 293.15 K): 759.695 ± 1.8 kg/m3
- speed of sound ([1]; 298.15 K): 1241.5 ± 1.1 m/s
- mass density ([1]; 298.15 K): 755.525 ± 1.8 kg/m3
- speed of sound ([1]; 303.15 K): 1222.5 ± 1.1 m/s
- mass density ([1]; 303.15 K): 751.458 ± 1.8 kg/m3
- refractive index ([2]; 293.15 K): 1.41724 ± 0.0043
- refractive index ([2]; 298.15 K): 1.41488 ± 0.0043
- refractive index ([2]; 303.15 K): 1.41253 ± 0.0043

Structure (SMILES): CCCCNCCCC [dibutylamine] + CN(C)C=O
- speed of sound ([3]; x2 = 0.0642): 1246.4 ± 1.1 m/s
- speed of sound ([3]; x2 = 0.1134): 1250.5 ± 1.1 m/s
- speed of sound ([3]; x2 = 0.1647): 1255 ± 1.1 m/s
- speed of sound ([3]; x2 = 0.2121): 1259.5 ± 1.1 m/s
- speed of sound ([3]; x2 = 0.2734): 1266.1 ± 1.1 m/s
- speed of sound ([3]; x2 = 0.3213): 1271.6 ± 1.2 m/s
- speed of sound ([3]; x2 = 0.4114): 1283.5 ± 1.2 m/s
- speed of sound ([3]; x2 = 0.4526): 1289.7 ± 1.2 m/s
- speed of sound ([3]; x2 = 0.5072): 1298.6 ± 1.2 m/s
- speed of sound ([3]; x2 = 0.5574): 1307.9 ± 1.2 m/s
- speed of sound ([3]; x2 = 0.5996): 1316.3 ± 1.2 m/s
- speed of sound ([3]; x2 = 0.6514): 1328.1 ± 1.2 m/s
- speed of sound ([3]; x2 = 0.6869): 1336.8 ± 1.2 m/s
- speed of sound ([3]; x2 = 0.7361): 1350.4 ± 1.2 m/s
- speed of sound ([3]; x2 = 0.7904): 1367.5 ± 1.3 m/s
- speed of sound ([3]; x2 = 0.8418): 1385.9 ± 1.3 m/s
- speed of sound ([3]; x2 = 0.8921): 1406.1 ± 1.3 m/s
- speed of sound ([3]; x2 = 0.9471): 1431 ± 1.4 m/s
- mass density ([3]; x2 = 0.0642): 761.171 ± 1.8 kg/m3
- mass density ([3]; x2 = 0.1134): 765.782 ± 1.9 kg/m3
- mass density ([3]; x2 = 0.1647): 770.882 ± 1.9 kg/m3
- mass density ([3]; x2 = 0.2121): 775.872 ± 1.9 kg/m3
- mass density ([3]; x2 = 0.2734): 782.835 ± 1.9 kg/m3
- mass density ([3]; x2 = 0.3213): 788.624 ± 1.9 kg/m3
- mass density ([3]; x2 = 0.4114): 800.702 ± 1.9 kg/m3
- mass density ([3]; x2 = 0.4526): 806.766 ± 2 kg/m3
- mass density ([3]; x2 = 0.5072): 815.344 ± 2 kg/m3
- mass density ([3]; x2 = 0.5574): 823.977 ± 2 kg/m3
- mass density ([3]; x2 = 0.5996): 831.688 ± 2 kg/m3
- mass density ([3]; x2 = 0.6514): 842.013 ± 2.1 kg/m3
- mass density ([3]; x2 = 0.6869): 849.571 ± 2.1 kg/m3
- mass density ([3]; x2 = 0.7361): 860.924 ± 2.1 kg/m3
- mass density ([3]; x2 = 0.7904): 874.714 ± 2.1 kg/m3
- mass density ([3]; x2 = 0.8418): 889.103 ± 2.2 kg/m3
- mass density ([3]; x2 = 0.8921): 904.666 ± 2.2 kg/m3
- mass density ([3]; x2 = 0.9471): 923.65 ± 2.3 kg/m3
- refractive index ([4]; x2 = 0.1038): 1.41553 ± 0.0043
- refractive index ([4]; x2 = 0.2076): 1.41628 ± 0.0043
- refractive index ([4]; x2 = 0.3608): 1.41761 ± 0.0043
- refractive index ([4]; x2 = 0.4897): 1.419 ± 0.0043
- refractive index ([4]; x2 = 0.5933): 1.42034 ± 0.0043
- refractive index ([4]; x2 = 0.688): 1.42178 ± 0.0043
- refractive index ([4]; x2 = 0.7709): 1.42323 ± 0.0043
- refractive index ([4]; x2 = 0.8398): 1.42459 ± 0.0043
- refractive index ([4]; x2 = 0.8989): 1.42587 ± 0.0043
- refractive index ([4]; x2 = 0.9497): 1.42706 ± 0.0043
- refractive index ([4]; x2 = 0.9738): 1.42765 ± 0.0043

Structure (SMILES): CN(C)C=O [dimethylformamide]
- speed of sound ([1]; 293.15 K): 1476.8 ± 1.2 m/s
- mass density ([1]; 293.15 K): 948.881 ± 2.3 kg/m3
- speed of sound ([1]; 298.15 K): 1457.2 ± 1.2 m/s
- mass density ([1]; 298.15 K): 944.081 ± 2.3 kg/m3
- speed of sound ([1]; 303.15 K): 1438.2 ± 1.2 m/s
- mass density ([1]; 303.15 K): 939.361 ± 2.3 kg/m3
- refractive index ([2]; 293.15 K): 1.43055 ± 0.0043
- refractive index ([2]; 298.15 K): 1.42828 ± 0.0043
- refractive index ([2]; 303.15 K): 1.42603 ± 0.0043

Structure (SMILES): CCCNCCC [dipropylamine]
- speed of sound ([1]; 293.15 K): 1209.4 ± 1.4 m/s
- mass density ([1]; 293.15 K): 738.194 ± 1.8 kg/m3
- speed of sound ([1]; 298.15 K): 1187.7 ± 1.4 m/s
- mass density ([1]; 298.15 K): 733.618 ± 1.8 kg/m3
- speed of sound ([1]; 303.15 K): 1167.2 ± 1.4 m/s
- mass density ([1]; 303.15 K): 729.098 ± 1.8 kg/m3
- refractive index ([2]; 293.15 K): 1.40432 ± 0.0042
- refractive index ([2]; 298.15 K): 1.40139 ± 0.0042
- refractive index ([2]; 303.15 K): 1.39883 ± 0.0042
